Results as given in patent publication US12221406B2, “Compounds as NLRP3 inflammasome inhibitors and compositions and uses thereof” (VIRGINIA COMMONWEALTH UNIVERSITY, priority 2019, dated 2025).

molecular target: NLRP3 inflammasome (Mus musculus, UniProt Q8R4B8); experiment: IL-1β release from J774A.1 cells upon LPS/ATP stimulation (ELISA)
Sequence (Q8R4B8 whole entry): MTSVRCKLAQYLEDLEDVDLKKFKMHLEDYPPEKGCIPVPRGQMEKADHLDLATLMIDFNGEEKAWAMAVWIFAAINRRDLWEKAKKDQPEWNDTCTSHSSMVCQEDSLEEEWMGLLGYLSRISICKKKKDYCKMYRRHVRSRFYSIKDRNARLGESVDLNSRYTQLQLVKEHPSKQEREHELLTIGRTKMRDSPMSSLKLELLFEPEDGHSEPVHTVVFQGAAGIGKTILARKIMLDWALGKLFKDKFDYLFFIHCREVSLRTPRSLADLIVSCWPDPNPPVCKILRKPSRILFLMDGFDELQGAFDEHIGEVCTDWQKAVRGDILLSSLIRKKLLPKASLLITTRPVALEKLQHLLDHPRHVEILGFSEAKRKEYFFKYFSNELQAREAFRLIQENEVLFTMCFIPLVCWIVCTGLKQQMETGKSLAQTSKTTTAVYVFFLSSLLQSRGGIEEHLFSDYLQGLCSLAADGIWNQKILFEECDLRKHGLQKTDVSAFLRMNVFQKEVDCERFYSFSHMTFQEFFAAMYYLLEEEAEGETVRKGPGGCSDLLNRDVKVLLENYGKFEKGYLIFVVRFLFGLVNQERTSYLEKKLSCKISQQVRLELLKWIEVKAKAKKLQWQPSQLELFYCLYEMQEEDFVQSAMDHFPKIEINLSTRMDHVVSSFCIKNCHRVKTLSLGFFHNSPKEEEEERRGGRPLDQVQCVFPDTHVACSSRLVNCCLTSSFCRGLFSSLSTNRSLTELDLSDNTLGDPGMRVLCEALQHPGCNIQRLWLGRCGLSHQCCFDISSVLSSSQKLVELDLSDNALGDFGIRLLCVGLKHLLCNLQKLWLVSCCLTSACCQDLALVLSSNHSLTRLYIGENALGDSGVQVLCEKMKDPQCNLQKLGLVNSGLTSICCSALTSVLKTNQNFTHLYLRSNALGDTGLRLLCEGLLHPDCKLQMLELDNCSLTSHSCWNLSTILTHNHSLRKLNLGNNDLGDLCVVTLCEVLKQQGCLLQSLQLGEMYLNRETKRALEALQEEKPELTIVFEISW
Protocol: Next, test compounds were added for 30 min. ATP (5 mM) was added at the same time when compounds were added to induce NLRP3 inflammasome activation. After 30 min, the supernatants were collected and the level of IL-1β was measured with a mouse IL-1β ELISA kit following the manufacturer's instructions. Primary peritoneal macrophages were similarly treated as described with J774A.1 cell line followed by ELISA analysis for IL-β production.

Row | SMILES | IC50 [nM]
1 | C=CCOc1ccc(Cl)cc1CN(CCc1ccc(S(=O)(=O)NCc2ccc(OC)cc2)cc1)C(=O)Cc1ccccc1 [SZ-N3I-27] | < 1000
2 | CCCCN(CCCC)C(=O)c1ccc(CCN(Cc2cc(Cl)ccc2OCCC)C(=O)Cc2ccccc2)cc1 [SZ-N3I-38] | < 1000
3 | CCCCCC(=O)N(CCc1ccc(S(=O)(=O)NC)cc1)Cc1cc(Cl)ccc1OC [SZ-N3I-16] | 1000 to 10000
4 | CCCOc1ccc(Cl)cc1CN(CCc1ccc(C(=O)OC)cc1)C(=O)Cc1ccsc1 [SZ-N3I-60] | 1000 to 10000
5 | C#CCNS(=O)(=O)c1ccc(CCN(Cc2cc(Cl)ccc2OCCC)C(=O)[C@@H](N)Cc2ccsc2)cc1 [SZ-N3I-79] | < 1000
6 | C#CCNS(=O)(=O)c1ccc(CCN(Cc2cc(Cl)ccc2N)C(=O)Cc2ccsc2)cc1 [SZ-N3I-86] | 1000 to 10000
7 | CCCOc1ccc(Cl)cc1CN(CCc1ccc(S(=O)(=O)NCc2ccc(OC)cc2)cc1)C(=O)Cc1ccccc1 [SZ-N3I-24] | < 1000
8 | C#CCNS(=O)(=O)c1ccc(CCN(Cc2cc(Cl)ccc2O)C(=O)Cc2ccsc2)cc1 [SZ-N3I-81] | < 1000
9 | CCCOc1ccc(Cl)cc1CN(CCc1ccc(S(=O)(=O)N2CCNCC2)cc1)C(=O)Cc1ccsc1 [SZ-N3I-69] | 1000 to 10000
10 | C#CCNS(=O)(=O)c1ccc(CCN(Cc2cc(Cl)ccc2OCCC)C(=O)[C@H](N)c2ccsc2)cc1 [SZ-N3I-84] | 1000 to 10000
11 | C#CCCC1(CCOc2ccc(Cl)cc2CN(CCc2ccc(S(=O)(=O)NCC#C)cc2)C(=O)Cc2ccsc2)N=N1 [SZ-N3I-82] | < 1000
12 | C#CCNS(=O)(=O)c1ccc(CCN(Cc2cc(Cl)ccc2OCCC)C(=O)[C@H]2CCCN2)cc1 [SZ-N3I-72] | 1000 to 10000
13 | COc1ccc(Cl)cc1C(=O)NCCc1ccc(S(=O)(=O)NCCOCCOCCCCCCCl)cc1 [SZ-N3I-62] | 1000 to 10000
14 | C#CCNS(=O)(=O)c1ccc(CCN(Cc2cc(Cl)ccc2OCCC)C(=O)[C@@H]2CCCN2)cc1 [SZ-N3I-71] | 1000 to 10000
15 | C#CCNS(=O)(=O)c1ccc(CCN(Cc2cc(Cl)ccc2OCCC)C(C)C)cc1 [SZ-N3I-68] | 1000 to 10000
16 | C#CCNS(=O)(=O)c1ccc(CCN(Cc2cc(Cl)ccc2OCCC)C(=O)[C@H](N)Cc2ccccc2)cc1 [SZ-N3I-77] | 1000 to 10000
17 | C#CCNS(=O)(=O)c1ccc(CCN(Cc2cc(Cl)ccc2[N+](=O)[O-])C(=O)[C@@H](N)Cc2cccs2)cc1 [SZ-N3I-87] | < 1000
18 | O=C(NCCc1ccc(S(=O)(=O)NCc2ccccc2)cc1)c1cc(Cl)ccc1C(O)c1ccccc1 (stereo not drawn) [SZ-N3I-65] | 1000 to 10000
19 | COc1ccc(CNS(=O)(=O)c2ccc(CCN(Cc3cc(Cl)ccc3OCC3CC3)C(=O)Cc3ccccc3)cc2)cc1 [SZ-N3I-25] | 1000 to 10000
20 | C#CCNS(=O)(=O)c1ccc(CCN(Cc2cc(Cl)ccc2OCCC)C(=O)[C@@H](N)c2ccsc2)cc1 [SZ-N3I-85] | < 1000
21 | C#CCNS(=O)(=O)c1ccc(CCN(Cc2cc(Cl)ccc2OCCN2CCOCC2)C(=O)Cc2ccsc2)cc1 [SZ-N3I-73] | 1000 to 10000
22 | CNS(=O)(=O)c1cc(CCNC(=O)c2cc(Cl)ccc2OC)co1 [SZ-N3I-33] | 1000 to 10000
23 | C=CCN(CCc1ccc(S(=O)(=O)NC)cc1)Cc1cc(Cl)ccc1OC [SZ-N3I-14] | 1000 to 10000
24 | O=C(NCCc1ccc(S(=O)(=O)N2CCCC2)cc1)c1cc(Cl)ccc1C(O)c1ccccc1 (stereo not drawn) [SZ-N3I-66] | 1000 to 10000
25 | C#CCNS(=O)(=O)c1ccc(CCN(Cc2cc(Cl)ccc2C(F)(F)F)C(=O)Cc2ccsc2)cc1 [SZ-N3I-89] | < 1000
26 | C#CCNS(=O)(=O)c1ccc(CCN(Cc2cc(Cl)ccc2OCCO)C(=O)Cc2ccsc2)cc1 [SZ-N3I-74] | 1000 to 10000

Row | SMILES | IC50 [nM]
27 | C#CCNS(=O)(=O)c1ccc(CCN(Cc2cc(Cl)ccc2OCCC)C(=O)C(N)C(C)C)cc1 (stereo not drawn) [SZ-N3I-70] | 1000 to 10000
28 | COc1ccc(CNS(=O)(=O)c2ccc(CCN(Cc3cc(Cl)ccc3OCc3ccccc3)C(=O)Cc3ccccc3)cc2)cc1 [SZ-N3I-28] | 1000 to 10000
29 | C=CC(=O)N(CCc1ccc(S(=O)(=O)NCc2ccc(OC)cc2)cc1)Cc1cc(Cl)ccc1OC [SZ-N3I-26] | < 1000
30 | CCOc1ccc(Cl)cc1CN(CCc1ccc(S(=O)(=O)NCc2ccc(OC)cc2)cc1)C(=O)Cc1ccccc1 [SZ-N3I-23] | 1000 to 10000
31 | C=CCN(CCc1ccc(S(=O)(=O)NC)cc1)C(=O)c1cc(Cl)ccc1C(=O)c1ccccc1 [SZ-N3I-32] | 1000 to 10000
32 | C#CCNS(=O)(=O)c1ccc(CCN(Cc2cccc3c2OCO3)C(=O)Cc2ccsc2)cc1 [SZ-N3I-88] | < 1000
33 | O=C(NCCc1ccc(S(=O)(=O)N2CCCC2)cc1)c1cc(Cl)ccc1C(=O)c1ccccc1 [SZ-N3I-64] | 1000 to 10000
34 | CCCN(CCc1ccc(S(=O)(=O)NC)cc1)Cc1cc(Cl)ccc1OC [SZ-N3I-20] | 1000 to 10000
35 | O=C(NCCc1ccc(S(=O)(=O)NCc2ccccc2)cc1)c1cc(Cl)ccc1C(=O)c1ccccc1 [SZ-N3I-63] | < 1000
36 | CCCCN(CCCC)S(=O)(=O)c1ccc(CCN(Cc2cc(Cl)ccc2OCCC)C(=O)Cc2ccccc2)cc1 [SZ-N3I-31] | > 30000
37 | COc1ccc(CNS(=O)(=O)c2ccc(CCN(Cc3cc(Cl)ccc3OC)C(=O)Cc3ccccc3)cc2)cc1 [SZ-N3I-22] | < 1000
38 | CCCOc1ccc(Cl)cc1CN(CCc1ccc(C(=O)NC)cc1)C(=O)Cc1ccccc1 [SZ-N3I-36] | 1000 to 10000
39 | CCCCCCCOc1ccc(Cl)cc1CN(CCc1ccc(S(=O)(=O)NCc2ccc(OC)cc2)cc1)C(=O)Cc1ccccc1 [SZ-N3I-29] | > 30000
40 | C#CCNS(=O)(=O)c1ccc(CCN(Cc2cc(Cl)ccc2OCCC)C(=O)[C@H]2NCCS2)cc1 [SZ-N3I-75] | 1000 to 10000
41 | CCCOc1ccc(Cl)cc1CN(CCc1ccc(S(=O)(=O)N2CCOCC2)cc1)C(=O)Cc1ccsc1 [SZ-N3I-80] | < 1000
42 | C#CCNS(=O)(=O)c1ccc(CCN(Cc2cc(Cl)ccc2OCCC)C(=O)[C@@H](N)Cc2cccs2)cc1 [SZ-N3I-78] | < 1000
43 | CCCCN(CCCC)S(=O)(=O)c1ccc(CCN(Cc2cc(Cl)ccc2OC)C(=O)Cc2ccccc2)cc1 [SZ-N3I-30] | 1000 to 10000
44 | CCCOc1ccc(Cl)cc1CN(CCc1ccc(C(=O)OC)cc1)C(=O)Cc1ccccc1 [SZ-N3I-35] | < 1000
45 | C#CCNC(=O)c1ccc(CCN(Cc2cc(Cl)ccc2OCCC)C(=O)Cc2ccccc2)cc1 [SZ-N3I-37] | < 1000
46 | CNS(=O)(=O)c1ccc(CCN(Cc2cc(Cl)ccc2OC)C(=O)Cc2ccccc2)cc1 [SZ-N3I-12] | < 1000
47 | C#CCNS(=O)(=O)c1ccc(CCN(CCCCC)Cc2cc(Cl)ccc2OCCC)cc1 [SZ-N3I-67] | 1000 to 10000
48 | CCC(=O)N(CCc1ccc(S(=O)(=O)NC)cc1)Cc1cc(Cl)ccc1OC [SZ-N3I-18] | 1000 to 10000
49 | C#CCNC(=O)c1ccc(CCN(Cc2cc(Cl)ccc2OCCC)C(=O)Cc2ccsc2)cc1 [SZ-N3I-61] | < 1000
50 | C#CCNS(=O)(=O)c1ccc(CCN(Cc2cc(Cl)ccc2[N+](=O)[O-])C(=O)Cc2ccsc2)cc1 [SZ-N3I-83] | < 1000
51 | CCCOc1ccc(Cl)cc1CN(CCc1ccc(C(=O)NCc2ccc(OC)cc2)cc1)C(=O)Cc1ccccc1 [SZ-N3I-39] | < 1000
